# How the values were obtained:
# NaV1.7 = target: T1, NaV1.7 (Homo sapiens, UniProt Q15858); experiment: Manual patch clamp, internal block of NaV1.7 current; format: cell-based; conditions: compound in internal solution, HEK293 cells, read-out: Nav1.7 Intracellular Inhibition; for inhibition at 10 µM: % inhibition at 10 μM test concentration; for inhibition at 3 µM: % inhibition at 3 μM test concentration
# T1 construct: expressed in transfected cells; host or cells: HEK293 (tetracycline-inducible)
# Protocol: Representative compounds of the invention were synthesized according to the described methods and tested for the ability to inhibit voltage-gated sodium channels.
# NaV1.7 was expressed in HEK293 cells upon induction with tetracycline. Cells were cultured in DMEM containing 10% dialyzed Fetal Bovine Serum (VWR, Radnor, Pa.), 1% Glutamax (VWR, Radnor, Pa.), 1% Penicillin-Streptomycin (VWR, Radnor, Pa.), 100 mg/L Hygromycin (Thermo Fisher Scientific, Waltham, Mass. and 5 mg/L Blasticidin (Alfa Aesar, Haverhill, Mass.). Cells were grown and maintained at 37° C. in a humidified environment containing 10% CO2 in air. Cells were detached from the culture flask for passage and harvested using 0.05% Trypsin-EDTA (Thermo Fisher Scientific, Waltham, Mass.). To induce NaV1.7, cells were induced with tetracycline (0.1-1 μg/mL, IBI Scientific, Peosta, Iowa) the day before recording and plated onto 24-well plates. Cells were washed with DPBS (VWR, Radnor, Pa.), trypsinized and then triturated five times in 10 mL of growth media to break apart cell aggregates. For one 24-well plate, 2 mL of cell suspension was mixed with 23 mL of fresh growth media and 0.1-1 μg/mL tetracycline added. 1 ml of mixed media with cells was then added to each well of a 24-well plate, with a 12 mm coverslip already placed in the bottom of the well. Cells were then incubated in 37° C. and 10% CO2 overnight.
# The intracellular solution contained the following (in mM) CsCl 135, NaCl 10, EGTA 10, HEPES 10, MgCl2 2, adjusted to pH 7.2 with CsOH. The external solution was a normal Ringer solution containing (in mM) NaCl 155, HEPES 10, glucose 10, KCl 3.5, CaCl2 1.5, MgCl2 1 adjusted to pH 7.4 with NaOH. CsCl is from Alfa Aesar, Haverhill, Mass. All other chemicals are from Sigma-Aldrich, St. Louis, Mo. In order to test the degree of internal block by test compounds the compounds were dissolved in internal solution at the indicated test concentration. […] In order to test the degree of external block by test compounds the compounds were dissolved in external solution at the indicated test concentration.
# 18-24 hours after cells were induced with tetracycline, coverslips were placed into a chamber filled with Normal Ringer solution at room temperature and the chamber placed on a microscope. Pipettes were pulled from borosilicate glass on a P97 puller (Sutter Instrument, Novato, Calif.) and polished with a MF-830 Microforge (Narishige International USA, Inc., Amityville, N.Y.) to have a resistance of 1.5-2.5 MΩ when filled with CsCl internal solution at room temperature. Healthy cells (those that are round and translucent with no visible blemishes) were chosen for seal formation. A seal was formed between the pipette and the cell, and a brief pulse of suction was used to “break in” and establish the whole-cell configuration. The membrane potential was held at −100 mV before the voltage protocol began. Only cells with series resistance between 1.5-5 MΩ were retained for analysis. The voltage protocol was as follows: Cells were held at −100 mV for 12 ms followed by a hyperpolarizing step to −105 mV for 12 ms to monitor the leak. Cells were then stepped back to −100 mV for 40 ms. Cells were then depolarized to −20 mV for 10 ms and then returned to −100 mV for 26 ms.
# Once the recording was started, the voltage protocol was run at 30 second intervals for 5 minutes to get a stable baseline. This was followed by four 30-second periods of 5 Hz stimulation of the same voltage protocol separated by 1 minute of rest which was then followed by 0.33 Hz stimulation after the last train. Currents were recorded using PatchMaster software with Heka EPC10 (HEKA Electronics, Lambrecht, Germany). Only cells with inward current amplitudes at −20 mV between 400 pA and 4 nA were accepted. In addition, cells having leak currents greater than 10% of their current amplitudes were discarded. […]
# [1] = PAMPA membrane permeability assay; format: in vitro ADME; conditions: permeability coefficient, pH 7.4 buffer, GIT lipid, 4 hours incubation
# Protocol: The PAMPA assay (pION, Inc., Woburn Mass.) was used to determine the ability of compounds of the invention to cross an artificial lipid membrane by passive diffusion. Test compounds were dissolved in DMSO (10 mM) and diluted 200-fold in buffer (pION Inc., pH 7.4) to provide 50 uM stock solutions. Buffer (150 μL) was added to a UV blank plate and stock solutions (150 μL) were transferred to a UV reference plate. The blank and reference spectrum were read using a spectrophotometer. Stock solutions (200 μL) were added to the donor plate of the PAMPA sandwich plate and an accept plate painted with GIT lipid (pION Inc, 5) was placed on top. Buffer (200 μL) was added to the acceptor plate and the PAMPA sandwich plate was incubated for 4 hours. Aliquots (150 μL) from the acceptor plate were added to a UV plate and read as acceptor spectrum. Aliquots (150 μL) of the donor solutions were added to a UV analysis plate and read as donor spectrum. The permeability coefficient of test compounds was calculated using PAMPA Explorer™ software (version 3.5.0.4) based on the AUC of the reference plate, the donor plate, and the acceptor plate.
# The PAMPA permeability results (10^−6 cm/s) of representative compounds are reported as “+” (<0.1 10^−6 cm/s), “++” (0.1-2.0 10^−6 cm/s), “+++” (2.0-10.010^−6 cm/s) or “++++” (>10.0 10^−6 cm/s).
# T1 sequence (Q15858 whole entry): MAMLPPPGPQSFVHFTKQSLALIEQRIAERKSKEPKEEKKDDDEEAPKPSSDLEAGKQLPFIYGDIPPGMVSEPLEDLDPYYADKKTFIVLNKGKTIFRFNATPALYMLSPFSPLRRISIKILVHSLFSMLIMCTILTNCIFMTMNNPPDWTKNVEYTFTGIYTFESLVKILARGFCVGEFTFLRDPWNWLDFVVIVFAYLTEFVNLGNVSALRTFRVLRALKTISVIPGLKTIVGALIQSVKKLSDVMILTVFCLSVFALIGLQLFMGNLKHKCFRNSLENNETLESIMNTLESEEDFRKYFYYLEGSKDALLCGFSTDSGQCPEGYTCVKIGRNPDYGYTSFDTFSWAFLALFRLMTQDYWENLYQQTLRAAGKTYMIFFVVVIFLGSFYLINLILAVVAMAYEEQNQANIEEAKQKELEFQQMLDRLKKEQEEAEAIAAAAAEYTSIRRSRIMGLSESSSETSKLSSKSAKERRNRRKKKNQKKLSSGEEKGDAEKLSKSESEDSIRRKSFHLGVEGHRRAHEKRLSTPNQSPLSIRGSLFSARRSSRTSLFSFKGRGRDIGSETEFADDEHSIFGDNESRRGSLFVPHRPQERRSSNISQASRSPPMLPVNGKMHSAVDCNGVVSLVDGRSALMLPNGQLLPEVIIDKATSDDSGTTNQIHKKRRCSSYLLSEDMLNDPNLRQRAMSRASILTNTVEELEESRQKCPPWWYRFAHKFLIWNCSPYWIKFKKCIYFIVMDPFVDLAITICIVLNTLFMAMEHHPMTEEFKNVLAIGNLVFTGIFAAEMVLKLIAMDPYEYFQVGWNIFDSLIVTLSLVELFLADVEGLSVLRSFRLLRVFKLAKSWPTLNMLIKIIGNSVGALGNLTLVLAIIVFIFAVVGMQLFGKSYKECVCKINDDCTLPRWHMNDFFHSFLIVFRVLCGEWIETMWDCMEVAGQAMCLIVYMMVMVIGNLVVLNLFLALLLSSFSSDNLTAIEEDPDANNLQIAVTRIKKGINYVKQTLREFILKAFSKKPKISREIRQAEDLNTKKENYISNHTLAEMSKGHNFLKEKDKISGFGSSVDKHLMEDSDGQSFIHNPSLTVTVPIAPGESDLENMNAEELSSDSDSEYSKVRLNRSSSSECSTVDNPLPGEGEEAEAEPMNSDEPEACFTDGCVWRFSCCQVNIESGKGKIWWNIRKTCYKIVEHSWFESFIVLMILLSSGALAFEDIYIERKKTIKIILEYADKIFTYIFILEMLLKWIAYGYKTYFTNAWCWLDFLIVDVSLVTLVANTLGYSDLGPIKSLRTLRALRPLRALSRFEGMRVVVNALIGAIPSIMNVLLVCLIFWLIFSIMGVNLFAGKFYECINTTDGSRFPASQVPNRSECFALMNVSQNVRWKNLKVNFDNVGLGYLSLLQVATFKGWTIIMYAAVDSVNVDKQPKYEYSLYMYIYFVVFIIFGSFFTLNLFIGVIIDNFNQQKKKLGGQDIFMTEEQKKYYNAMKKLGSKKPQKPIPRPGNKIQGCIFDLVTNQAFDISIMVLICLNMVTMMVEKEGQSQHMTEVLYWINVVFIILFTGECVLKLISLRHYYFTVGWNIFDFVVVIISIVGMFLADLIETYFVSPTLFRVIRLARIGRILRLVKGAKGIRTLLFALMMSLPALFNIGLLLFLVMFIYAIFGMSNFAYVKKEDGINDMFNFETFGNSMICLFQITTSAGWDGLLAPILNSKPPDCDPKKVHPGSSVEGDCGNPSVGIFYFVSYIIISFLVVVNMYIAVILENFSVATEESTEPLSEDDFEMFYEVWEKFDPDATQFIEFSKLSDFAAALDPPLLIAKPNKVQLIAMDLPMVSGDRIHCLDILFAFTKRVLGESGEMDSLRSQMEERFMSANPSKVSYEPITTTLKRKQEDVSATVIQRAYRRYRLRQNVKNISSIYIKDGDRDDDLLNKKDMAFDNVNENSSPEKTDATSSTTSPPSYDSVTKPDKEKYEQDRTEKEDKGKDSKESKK
SMILES,inhibition at 10 µM (NaV1.7),PAMPA (10^−6 cm/s) [1],inhibition at 3 µM (NaV1.7)
CCC(C(=O)Nc1c(C)cccc1C)[N+]1(Cc2ccc(C#N)cc2)CCCCC1 (centres unmarked) [Compound 13A],70 to 95%,+ (“+” (<0.1 10^−6 cm/s)),
"CCC(C(=O)Nc1c(C)cc(C)cc1C)[N+]1(Cc2ccccc2)CCCCC1.[Br-] (centres unmarked) [Compound 39A, 1-benzyl-1-(1-(mesitylamino)-1-oxobutan-2-yl) piperidin-1-ium bromide]",70 to 95%,+ (“+” (<0.1 10^−6 cm/s)),
"CCCCN(C(=O)OC(C)(C)C)c1ccc(NC(=O)C[N+]2(Cc3ccccc3)CCCCCC2)cc1 [Compound 40A, 1-benzyl-1-(2-((4-((tert-butoxycarbonyl) (butyl)amino)phenyl)amino)-2-oxoethyl) azepan-1-ium bromide]",40 to 70%,,
Cc1cccc(C)c1N1CCCC([N+]2(Cc3ccccc3)CCCCCC2)C1=O (centres unmarked) [Compound 93A],,+ (“+” (<0.1 10^−6 cm/s)),70 to 90%
"CCCCNc1cc(C)c(NC(=O)C(CC)[N+]2(Cc3ccccc3)CCCCC2)c(C)c1 (centres unmarked) [Compound 43A, 1-benzyl-1-(1-((4-(butylamino)-2,6-dimethylphenyl)amino)-1-oxobutan-2-yl) piperidin-1-ium carbonate]",70 to 95%,,
"CCC(C(=O)Nc1c(C)cccc1C)[N+]1(Cc2ccccc2)CCCCCC1.[Br-] (centres unmarked) [Compound 30A, 1-benzyl-1-(1-((2,6-dimethylphenyl)amino)-1-oxobutan-2-yl) azepan-1-ium bromide]",> 95%,+ (“+” (<0.1 10^−6 cm/s)),> 90%
"Cc1cccc(C)c1NC(=O)C[N+]1(Cc2ccccc2)CCCCCCC1.[Br-] [Compound 31A, 1-benzyl-1-(2-((2,6-dimethylphenyl)amino)-2-oxoethyl)azocan-1-ium bromide]",> 95%,+ (“+” (<0.1 10^−6 cm/s)),> 90%
CCc1ccccc1C[N+]1(C(CC)C(=O)Nc2c(C)cccc2C)CCCCC1 (centres unmarked) [Compound 21A],> 95%,+ (“+” (<0.1 10^−6 cm/s)),> 90%
"CCCCNc1ccc(NC(=O)C[N+]2(Cc3ccccc3)CCCCC2)cc1.O=C([O-])O [Compound 42A, 1-benzyl-1-(2-((4-(butylamino)phenyl)amino)-2-oxoethyl) piperidin-1-ium carbonate]",,++ (“++” (0.1-2.0 10^−6 cm/s)),
CCC(C(=O)Nc1c(C)cccc1C)[N+]1(Cc2cccc(C#N)c2)CCCCC1 (centres unmarked) [Compound 14A],70 to 95%,+ (“+” (<0.1 10^−6 cm/s)),
"Cc1cccc(C)c1NC(=O)C[N+]1(Cc2ccccc2)CCCC1.[Br-] [Compound 5A, 1-benzyl-1-(2-((2,6-dimethylphenyl)amino)-2-oxoethyl) pyrrolidin-1-ium bromide]",70 to 95%,+ (“+” (<0.1 10^−6 cm/s)),> 90%
"Cc1cccc(C)c1NC(=O)C[N+](C)(C)Cc1ccccc1 [Compound 2A, N-benzyl-2-((2,6-dimethylphenyl)amino)-N,N-dimethyl-2-oxoethan-1-aminium bromide]",40 to 70%,+ (“+” (<0.1 10^−6 cm/s)),
"CC[N+](CC)(CC(=O)Nc1c(C)cccc1C)Cc1ccccc1 [Compound 1A, N-benzyl-2-((2,6-dimethylphenyl)amino)-N,N-diethyl-2-oxoethan-1-aminium bromide]",70 to 95%,,

# Results, then the compound that gave them:
inhibition at 10 µM (NaV1.7),PAMPA (10^−6 cm/s) [1],inhibition at 3 µM (NaV1.7),SMILES
70 to 95%,+ (“+” (<0.1 10^−6 cm/s)),,CCC(C(=O)Nc1c(C)cccc1C)[N+]1(Cc2ccc(F)cc2)CCCCC1 (centres unmarked) [Compound 7A]
> 95%,,,CCC(C(=O)Nc1c(C)cccc1C)[N+]1(Cc2cccc(Cl)c2)CCCCC1 (centres unmarked) [Compound 11A]
40 to 70%,,,CCC(C(=O)Nc1c(C)cccc1C)[N+]1(Cc2cnc(C)s2)CCCCC1 (centres unmarked) [Compound 25A]
> 95%,+ (“+” (<0.1 10^−6 cm/s)),,CCC(C(=O)Nc1c(C)cccc1C)[N+]1(Cc2cccc(C)c2)CCCCC1 (centres unmarked) [Compound 17A]
> 95%,+ (“+” (<0.1 10^−6 cm/s)),,CCC(C(=O)Nc1c(C)cccc1C)[N+]1(Cc2ccc(C)cc2)CCCCC1 (centres unmarked) [Compound 16A]
70 to 95%,+ (“+” (<0.1 10^−6 cm/s)),,CCC(C(=O)Nc1c(C)cccc1C)[N+]1(Cc2ccc(Cl)cc2)CCCCC1 (centres unmarked) [Compound 10A]
70 to 95%,+ (“+” (<0.1 10^−6 cm/s)),,"CCC(C(=O)Nc1c(C)cccc1C)[N+]1(Cc2cccc(OC)c2)CCCCC1 (centres unmarked) [Compound 23A, 1-(1-((2,6-dimethylphenyl)amino)-1-oxobutan-2-yl)-1-(3-methoxybenzyl) piperidin-1-ium bromide]"
,+ (“+” (<0.1 10^−6 cm/s)),70 to 90%,"CCC(C(=O)Nc1c(C)cccc1C)[N+]1(Cc2cnn(C)c2)CCCCC1.[Br-] (centres unmarked) [Compound 34A, 1-(1-((2,6-dimethylphenyl)amino)-1-oxobutan-2-yl)-1-((1-methyl-1H-pyrazol-4-yl)methyl) piperidin-1-ium bromide]"
70 to 95%,+ (“+” (<0.1 10^−6 cm/s)),,CCC(C(=O)Nc1c(C)cccc1C)[N+]1(Cc2cc(C)on2)CCCCC1 (centres unmarked) [Compound 27A]
> 95%,,> 90%,"CCC(C(=O)Nc1c(C)cccc1C)[N+]1(Cc2ccccc2OC)CCCCC1 (centres unmarked) [Compound 24A, 1-(1-((2,6-dimethylphenyl)amino)-1-oxobutan-2-yl)-1-(2-methoxybenzyl) piperidin-1-ium bromide]"
70 to 95%,,70 to 90%,CCC(C(=O)Nc1c(C)cccc1C)[N+]1(Cc2ccc(OC)cc2)CCCCC1 (centres unmarked) [Compound 22A]
40 to 70%,,< 40%,"CCC(C(=O)Nc1c(C)cccc1C)[N+]1(Cc2ccccc2O)CCCCC1 (centres unmarked) [Compound 28A, 1-(1-((2,6-dimethylphenyl)amino)-1-oxobutan-2-yl)-1-(2-hydroxybenzyl) piperidin-1-ium 2,2,2-trifluoroacetate]"
70 to 95%,,> 90%,"CCC(C(=O)Nc1c(C)cccc1C)[N+]1(Cc2cccc(O)c2)CCCCC1 (centres unmarked) [Compound 29A, 1-(1-((2,6-dimethylphenyl)amino)-1-oxobutan-2-yl)-1-(3-hydroxybenzyl) piperidin-1-ium carbonate]"
